In patent US6551790B2, “Process for glucuronidation screening” (PanVera LLC, priority 1998, dated 2003):
Positions count from the first letter of the chain named. Like-named read-outs stand apart in the source and are kept apart here.

Legend:
UGT2B7Y(268) [1] = biological target: T1, UGT2B7Y(268) (Homo sapiens, UniProt P16662); assay: Kinetics of glucuronidation, membrane preparations of HK293 cells stably expressing UGT2B7Y(268)
T1 sequence (P16662 24-529): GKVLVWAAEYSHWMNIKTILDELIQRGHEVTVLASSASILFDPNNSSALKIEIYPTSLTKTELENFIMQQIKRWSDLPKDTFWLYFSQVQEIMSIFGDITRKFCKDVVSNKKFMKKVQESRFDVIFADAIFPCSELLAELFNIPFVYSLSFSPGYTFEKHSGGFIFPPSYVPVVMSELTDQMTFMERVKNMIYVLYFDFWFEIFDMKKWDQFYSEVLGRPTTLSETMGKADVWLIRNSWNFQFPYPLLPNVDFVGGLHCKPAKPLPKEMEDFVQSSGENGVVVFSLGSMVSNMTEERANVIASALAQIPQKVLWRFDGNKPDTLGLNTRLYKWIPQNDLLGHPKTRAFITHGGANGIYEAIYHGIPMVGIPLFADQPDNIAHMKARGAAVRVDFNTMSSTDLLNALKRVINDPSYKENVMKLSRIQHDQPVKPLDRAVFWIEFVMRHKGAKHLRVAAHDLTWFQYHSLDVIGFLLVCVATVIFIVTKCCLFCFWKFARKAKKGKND

UGT2B7H(268) [2] = biological target: T2, UGT2B7H(268) (Homo sapiens, UniProt P16662, Y268H); assay: in vitro
T2 sequence (P16662 24-529 Y268H): T1 sequence (P16662 24-529) with Y245H

UGT2B7 = biological target: T3, UGT2B7 (Homo sapiens, UniProt P16662)
T3 sequence (P16662 24-529): T1 sequence (P16662 24-529)
Text: Heterologous expression and characterization of full length UGT 2B7.
Stable UGT2B7 cell lines were established from embryonic human kidney cells (HK293 cells) and microsomal membrane fractions from these cells were used to assess the properties of the recombinant enzyme. […] The specificity of the purified UGT2B7 will be assessed by determining overall catalytic efficiency with each aglycone substrate, as reflected in a ratio of the two fundamental Michaelis kinetic parameters, Vmax/Km. Reaction rates will be determined over a range of substrate concentrations and nonlinear regression will be used to fit the UGT rate data to velocity versus substrate curves (Graph Pad, Prism). Vmax/Km values will be determined and compared with those determined with the enzyme isolated from HK293 cells (Table 1). […] This ratio will be determined for the purified enzyme using HPLC-based methods for separation and quantification of the two glucuronides.

UGT2B7H(268) [3] = biological target: T2, UGT2B7H(268); conditions: human
UGT2B7Y(268) [4] = biological target: T1, UGT2B7Y(268); conditions: human
UGT2B7Y(268) [5] = biological target: T1, UGT2B7Y(268); assay: in vitro
UGT2B7H(268) [6] = biological target: T2, UGT2B7H(268); assay: Kinetics of glucuronidation, membrane preparations of HK293 cells stably expressing UGT2B7H(268)

SMILES: COc1ccc2c3c1O[C@H]1[C@@H](O)C=C[C@H]4[C@@H](C2)N(C)CC[C@@]341 [codeine]
- Vmax (UGT2B7Y(268) [1]): 190, 40 pmol/min/mg protein
- Km (UGT2B7H(268) [2]): 791 µM
- Glucuronidation activity towards opioids (UGT2B7): demonstrated
- conversion to the 6-O-glucuronide by UGT2B7 (UGT2B7): efficiently converted
- efficiency ratio of glucuronidation, 3-OH to 6-OH (UGT2B7; human, pH 7.7): 7 to 1
- Km (UGT2B7H(268) [3]): 550 µM
- Km (UGT2B7Y(268) [4]): 360 µM
- Km (UGT2B7Y(268) [5]): 230 µM
- Vmax (UGT2B7H(268) [6]): 97, 110 pmol/min/mg protein
